Test results published in patent publication US10513524B2, “PDE9 inhibitors with imidazo triazinone backbone and imidazo pyrazinone backbone for treatment of peripheral diseases” (H. LUNDBECK A/S, priority 2015, dated 2019).

Legend:
[1] = tested on: PDE1; test: PDE1 inhibition assay; assay type: biochemical; settings: 15 nM tritium labelled cAMP, SPA beads, 1 h at room temperature
Procedure: Reactions were initiated by addition of the cyclic nucleotide substrate, and reactions were allowed to proceed for 1 h at room temperature before being terminated through mixing with 20 μL (0.2 mg) yttrium silicate SPA beads (PerkinElmer).

[2] = Blood Brain Barrier penetration (brain-to-plasma distribution); assay type: in vivo; settings: male CD mice, subcutaneous 10 mg/kg; for Kp at 0.5 h / Kp at 2 h: mouse, brain/plasma, sc; for Brain concentration after 30 minutes / Plasma concentration after 30 minutes / Kp at 0.5 h: 30 min; for Kp at 0.5 h: read-out: Brain/Plasma ratio after 30 minutes; for Brain concentration after 120 minutes / Plasma concentration after 120 minutes / Kp at 2 h: 120 min; for Kp at 2 h: read-out: Brain/Plasma ratio after 120 minutes
Procedure: Male CD mice (20-24 g) were housed pair-wise with free access to food and water for an acclimatization period of 3-7 days before initiation of experiments. Prior to dosing the animals were fasted overnight. During testing, mice were kept in individual cages. The brain-to-plasma distribution was assessed 30 minutes and 2 hours after subcutaneous administration of the test compound at a dose of 10 mg/kg (n=3 at each time point). The dose volume was 10 ml/kg using appropriate vehicle to solubilize each test compound. At the time of sampling, animals were anesthetized with isoflurane and a systemic blood sample collected by cardiac puncture into vacutainers containing sodium heparin as anti-coagulant. The blood was centrifuged at 3500 rpm for 10 minutes at 4° C. to obtain plasma. Following decapitation, brains were dissected out and transferred to pre-weighed vessels followed by tissue weights determination. Plasma and brains were stored at −80° C. until quantitative bioanalysis by LC-MS/MS. Results are expressed as ng/ml for plasma and ng/g for brain samples.

| SMILES | IC50 [1] [µM] | Brain concentration after 30 minutes [2] | Plasma concentration after 30 minutes [2] | Brain concentration after 120 minutes [2] | Plasma concentration after 120 minutes [2] | Kp at 0.5 h [2] | Kp at 2 h [2] |
| --- | --- | --- | --- | --- | --- | --- | --- |
| C[C@@H]1CN(Cc2ncccn2)C[C@H]1c1cn2c(C3CCOCC3)ncc2c(=O)[nH]1 (single isomer, unassigned) [Compound (P3, enantiomer 1)] | 3 | 30 min.: 67 ng/mL | 30 min.: 1620 ng/mL | 120 min.: 7 ng/mL | 120 min.: 226 ng/mL | 0.04 | 0.03 |
| O=c1[nH]c(CN2CC(Oc3ccncc3)C2)cn2c(-c3ccc(F)cc3)ncc12 [Compound (P1), 3-(4-fluorophenyl)-6-((3-(pyridin-4-yloxy)azetidin-1-yl)methyl)imidazo[1,5-a]pyrazin-8(7H)-one] | 45.1 | 30 min.: 42 ng/mL | 30 min.: 719 ng/mL | 120 min.: 7 ng/mL | 120 min.: 86 ng/mL | 0.06 | 0.08 |
| O=c1[nH]c(CN2CC(Oc3cccnc3)C2)cn2c(C3CCOCC3)ncc12 [Compound (P2), 6-[3-(pyridin-3-yloxy)-azetidin-1-ylmethyl]-3-(tetrahydropyran-4-yl)-7H-imidazo[1,5-a]pyrazin-8-one] | 5.28 | Below detection | 30 min.: 715 ng/mL | Below detection | 120 min.: 11 ng/mL | – | – |

Now from value to molecule:

| IC50 [1] [µM] | Brain concentration after 30 minutes [2] | Plasma concentration after 30 minutes [2] | Brain concentration after 120 minutes [2] | Plasma concentration after 120 minutes [2] | Kp at 0.5 h [2] | Kp at 2 h [2] | SMILES |
| --- | --- | --- | --- | --- | --- | --- | --- |
| 2.5 | – | – | – | – | – | – | C[C@@H]1CN(Cc2ncccn2)C[C@H]1c1nc2c(cnn2C2CCOCC2)c(=O)[nH]1 (single isomer, unassigned) [Reference compound, reference compound] |
| – | 30 min.: 125 ng/mL | 30 min.: 3380 ng/mL | 120 min.: 15 ng/mL | 120 min. 352 ng/mL | – | – | O=c1[nH]c(CN2CC(OCc3ccc(F)cc3)C2)nn2c(C3CCOCC3)ncc12 [Compound (P4)] |
